The results in this text go back to ChEMBL document CHEMBL1255480, “Characterization of DIM-1, an integron-encoded metallo-beta-lactamase from a Pseudomonas stutzeri clinical isolate in the Netherlands” (2010).

Values after ≈ are worked out from the molar mass of the structure shown.

In series [1] the test system is Stutzerimonas stutzeri. Description: Antimicrobial activity against Pseudomonas stutzeri clinical isolate expressing beta-lactamase DIM-1 by agar dilution method in presence of beta-lactam inhibitor clavulanic acid. It is filed as functional. (In general: In agar dilution, organisms are placed on agar that contains the substance at set levels.)
In series [2] the test system is Escherichia coli. The series is described as follows: Antimicrobial activity against Escherichia coli TOP10 harboring beta-lactamase DIM-1 by agar dilution method. It is filed as functional.
Series [3] has as its system Escherichia coli. Description: Antimicrobial activity against Escherichia coli TOP10 harboring beta-lactamase DIM-1 by agar dilution method in presence of beta-lactam inhibitor clavulanic acid. It is filed as functional.
The test system of series [4] is Escherichia coli. The series is described as follows: Antimicrobial activity against Escherichia coli TOP10 by agar dilution method. It is filed as functional.
Series [5] deals with Escherichia coli. The series is described as follows: Antimicrobial activity against Escherichia coli TOP10 by agar dilution method in presence of beta-lactam inhibitor clavulanic acid. It is filed as functional.
In series [6] the test system is Stutzerimonas stutzeri. Description: Antimicrobial activity against Pseudomonas stutzeri clinical isolate expressing beta-lactamase DIM-1 by agar dilution method. Type of series: functional.
Series [7] addresses T1, Metallo-beta-lactamase (Pseudomonas stutzeri) (UniProt D5JGF6).
T1 sequence (whole entry): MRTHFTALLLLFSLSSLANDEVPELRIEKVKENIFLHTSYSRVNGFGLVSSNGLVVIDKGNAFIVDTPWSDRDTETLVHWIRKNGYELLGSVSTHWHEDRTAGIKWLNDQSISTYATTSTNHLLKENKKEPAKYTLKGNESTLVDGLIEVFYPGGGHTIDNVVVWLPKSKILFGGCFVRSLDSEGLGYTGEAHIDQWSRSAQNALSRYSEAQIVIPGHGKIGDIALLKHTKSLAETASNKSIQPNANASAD
The series is described as follows: Ratio of Kcat to Km for Pseudomonas stutzeri beta-lactamase DIM-1by UV-spectrophotometry. More on the design: unit not given here. The settings on record: Stutzerimonas stutzeri.

In series [8] the test system is Stutzerimonas stutzeri. The series is described as follows: Antimicrobial activity against Pseudomonas stutzeri clinical isolate expressing beta-lactamase DIM-1 by agar dilution method in presence of beta-lactam inhibitor Tazobactam. Type of series: functional.
The test system of series [9] is Escherichia coli. The series is described as follows: Antimicrobial activity against Escherichia coli TOP10 harboring beta-lactamase DIM-1 by agar dilution method in presence of beta-lactam inhibitor Tazobactam. Type of series: functional.
Series [10] has as its system Escherichia coli. The series is described as follows: Antimicrobial activity against Escherichia coli TOP10 by agar dilution method in presence of beta-lactam inhibitor Tazobactam. Type of series: functional.
Substrate in series [11]: CC(=O)OCC1=C(C(=O)O)N2C(=O)[C@@H](NC(=O)Cc3cccs3)[C@H]2SC1
Description: (§1) Activity of Pseudomonas stutzeri beta-lactamase DIM-1 by UV-spectrophotometry. The note with it: Stutzerimonas stutzeri.

Substrate in series [12]: CC(C)(O/N=C(\C(=O)N[C@@H]1C(=O)N2C(C(=O)[O-])=C(C[n+]3ccccc3)CS[C@H]12)c1csc(N)n1)C(=O)O
Described as §1. The settings on record: Stutzerimonas stutzeri.

Substrate in series [13]: CC1(C)S[C@@H]2[C@H](NC(=O)Cc3ccccc3)C(=O)N2[C@H]1C(=O)O
The description is as §1. The settings on record: Stutzerimonas stutzeri.

Substrate in series [14]: CC1(C)S[C@@H]2[C@H](NC(=O)[C@H](C(=O)O)c3ccsc3)C(=O)N2[C@H]1C(=O)O
The description is as §1. The note with it: Stutzerimonas stutzeri.

Substrate in series [15]: CC1(C)S[C@@H]2[C@H](NC(=O)[C@H](N)c3ccccc3)C(=O)N2[C@H]1C(=O)O
The description is as §1. The note with it: Stutzerimonas stutzeri.

Substrate in series [16]: CO/N=C(\C(=O)N[C@@H]1C(=O)N2C(C(=O)O)=C(COC(C)=O)CS[C@H]12)c1csc(N)n1
The series is described as §1. The note with it: Stutzerimonas stutzeri.

Substrate in series [17]: CO/N=C(\C(=O)N[C@@H]1C(=O)N2C(C(=O)[O-])=C(C[N+]3(C)CCCC3)CS[C@H]12)c1csc(N)n1
The series is described as §1. The settings on record: Stutzerimonas stutzeri.

Substrate in series [18]: CO[C@@]1(NC(=O)Cc2cccs2)C(=O)N2C(C(=O)O)=C(COC(N)=O)CS[C@@H]21
The description is as §1. The note with it: Stutzerimonas stutzeri.

Substrate in series [19]: C[C@@H](O)[C@H]1C(=O)N2C(C(=O)O)=C(SCCNC=N)C[C@H]12
The description is as §1. The note with it: Stutzerimonas stutzeri.

Substrate in series [20]: C[C@@H](O)[C@H]1C(=O)N2C(C(=O)O)=C(S[C@@H]3CN[C@H](C(=O)N(C)C)C3)[C@H](C)[C@H]12
Described as §1. The settings on record: Stutzerimonas stutzeri.

Substrate in series [21]: C[C@H]1[C@H](NC(=O)/C(=N\OC(C)(C)C(=O)O)c2csc(N)n2)C(=O)N1S(=O)(=O)O
Described as §1. The note with it: Stutzerimonas stutzeri.

The MIC is the lowest concentration that inhibits growth of the organism. On to `CC1(C)S[C@@H]2[C@H](NC(=O)[C@H](N)c3ccc(O)cc3)C(=O)N2[C@H]1C(=O)O` [AMOXICILLIN], for which the MIC in the series on Stutzerimonas stutzeri [1] is more than 512 mg/L; against Escherichia coli [2], more than 512 mg/L; in the series on Escherichia coli [3] it was more than 512 mg/L; in the series on Escherichia coli [4], 4 mg/L (≈ 10.9 µM); in the series on Escherichia coli [5] it was 4 mg/L; against Stutzerimonas stutzeri [6] it was more than 512 mg/L.

Consider `C[C@H]1[C@H](NC(=O)/C(=N\OC(C)(C)C(=O)O)c2csc(N)n2)C(=O)N1S(=O)(=O)O` [AZTREONAM], for which the MIC in the series on Escherichia coli [2] amounted to 0.25 mg/L (≈ 0.574 µM).

Turning to `C[C@@H](O)[C@H]1C(=O)N2C(C(=O)O)=C(S[C@@H]3CN[C@H](C(=O)N(C)C)C3)[C@H](C)[C@H]12`, in [7], the Ratio was found to be 200.

`CCN1CCN(C(=O)N[C@@H](C(=O)N[C@@H]2C(=O)N3[C@@H]2SC(C)(C)[C@@H]3C(=O)O)c2ccccc2)C(=O)C1=O` [PIPERACILLIN]: the MIC against Escherichia coli [2] is more than 512 mg/L; against Escherichia coli [4] it was 1 mg/L (≈ 1.93 µM); in the series on Stutzerimonas stutzeri [6], more than 512 mg/L; in the series with Stutzerimonas stutzeri [8] it was 512 mg/L; in the series with Escherichia coli [9], 512 mg/L; in the series on Escherichia coli [10], 1 mg/L.

Take `CO[C@@]1(NC(=O)Cc2cccs2)C(=O)N2C(C(=O)O)=C(COC(N)=O)CS[C@@H]21` [CEFOXITIN]: the MIC in the series with Escherichia coli [2] is 512 mg/L (≈ 1200 µM); in the series with Escherichia coli [4] it was 4 mg/L (≈ 9.36 µM); in the series with Stutzerimonas stutzeri [6], 512 mg/L (≈ 1200 µM). The Ratio in series [7] was 400.

Turning to `CC(C)(O/N=C(\C(=O)N[C@@H]1C(=O)N2C(C(=O)[O-])=C(C[n+]3ccccc3)CS[C@H]12)c1csc(N)n1)C(=O)O` [CEFTAZIDIME], the MIC in the series with Escherichia coli [2] worked out at 256 mg/L (≈ 468 µM); against Escherichia coli [4], 0.06 mg/L (≈ 0.11 µM); against Stutzerimonas stutzeri [6] it was 8 mg/L (≈ 14.6 µM). For the same molecule, the Ratio in series [7] was determined as 60.

Turning to `CC1(C)S[C@@H]2[C@H](NC(=O)[C@H](C(=O)O)c3ccsc3)C(=O)N2[C@H]1C(=O)O` [TICARCILLIN], the MIC was more than 512 mg/L in the series on Stutzerimonas stutzeri [1]; more than 512 mg/L against Escherichia coli [2]; more than 512 mg/L in the series with Escherichia coli [3]; 4 mg/L (≈ 10.4 µM) with Escherichia coli [4]; 4 mg/L in the series with Escherichia coli [5]; more than 512 mg/L in the series on Stutzerimonas stutzeri [6]. Also, the Ratio in series [7] stood at 15000.

`C[C@@H](O)[C@H]1C(=O)N2C(C(=O)O)=C(SCCNC=N)C[C@H]12` [IMIPENEM ANHYDROUS]: the MIC was 2 mg/L (≈ 6.68 µM) in the series with Escherichia coli [2] and 64 mg/L (≈ 214 µM) in the series on Stutzerimonas stutzeri [6]. Moreover, the Ratio in series [7] is 440.

As for `CC1(C)S[C@@H]2[C@H](NC(=O)Cc3ccccc3)C(=O)N2[C@H]1C(=O)O`, in series [7], the Ratio worked out at 2800.

For the molecule `CO/N=C(\C(=O)N[C@@H]1C(=O)N2C(C(=O)O)=C(COC(C)=O)CS[C@H]12)c1csc(N)n1` [CEFOTAXIME], the figures for the MIC with Escherichia coli [2], with Escherichia coli [4] and with Stutzerimonas stutzeri [6] were 256 mg/L (≈ 562 µM), 0.12 mg/L (≈ 0.263 µM) and 512 mg/L (≈ 1120 µM), respectively. For the same molecule, the Ratio in series [7] is 3000.

Regarding `CC1(C)S[C@@H]2[C@H](NC(=O)[C@H](N)c3ccccc3)C(=O)N2[C@H]1C(=O)O`, the Ratio in series [7] was 180.

As for `CO/N=C(\C(=O)N[C@@H]1C(=O)N2C(C(=O)[O-])=C(C[N+]3(C)CCCC3)CS[C@H]12)c1csc(N)n1`, in the series on Escherichia coli [2], 1 mg/L (≈ 2.08 µM) was the least that counted as inhibitory (MIC).

For the molecule `CC(=O)OCC1=C(C(=O)O)N2C(=O)[C@@H](NC(=O)Cc3cccs3)[C@H]2SC1`, in [7], the Ratio came out at 5000.

B1: Metallo-beta-lactamase (Pseudomonas stutzeri), D5JGF6 (protein)
chain: T1 sequence (whole entry)
The term Km denotes the concentration of substrate that gives half-maximal velocity. A word on the kcat: it is the maximal rate divided by the concentration of active sites. Take B1: the Km amounted to 6 µM in series [11]; 50 µM in series [12]; 90 µM in series [13]; 80 µM in series [14]; 110 µM in series [15]; 3.5 µM in [16]. The Km in series [17] turned out to be 220 µM; in series [18], 20 µM; in series [19] it was 80 µM; in [20], 20 µM. The kcat turned out to be 30 s⁻¹ in [11]; 3 s⁻¹ in series [12]; 250 s⁻¹ in series [13]; 250 s⁻¹ in [14]; 20 s⁻¹ in [15]; 10 s⁻¹ in series [16]. For the same molecule, the kcat in series [17] is 3 s⁻¹; in series [18] it was 8 s⁻¹; in series [19], 35 s⁻¹; in [20], 4 s⁻¹; in [21] it was less than 0.01 s⁻¹.
